Assay results reported in ChEMBL document CHEMBL1153928, “Novel N-substituted 2-phenyl-1-sulfonylamino-cyclopropane carboxylates as selective ADAMTS-5 (Aggrecanase-2) inhibitors” (Bioorg Med Chem Lett, 2009).
pIC50: −log10 of the molar value. Calls of active or inactive are those of the source. The calls are words filed in the database; no cut-off is given here.

What was measured:
[1] = molecular target: T1, A disintegrin and metalloproteinase with thrombospondin motifs 5 (Homo sapiens, UniProt Q9UNA0); experiment: Inhibition of recombinant aggrecanase 2
T1 sequence (Q9UNA0 whole entry): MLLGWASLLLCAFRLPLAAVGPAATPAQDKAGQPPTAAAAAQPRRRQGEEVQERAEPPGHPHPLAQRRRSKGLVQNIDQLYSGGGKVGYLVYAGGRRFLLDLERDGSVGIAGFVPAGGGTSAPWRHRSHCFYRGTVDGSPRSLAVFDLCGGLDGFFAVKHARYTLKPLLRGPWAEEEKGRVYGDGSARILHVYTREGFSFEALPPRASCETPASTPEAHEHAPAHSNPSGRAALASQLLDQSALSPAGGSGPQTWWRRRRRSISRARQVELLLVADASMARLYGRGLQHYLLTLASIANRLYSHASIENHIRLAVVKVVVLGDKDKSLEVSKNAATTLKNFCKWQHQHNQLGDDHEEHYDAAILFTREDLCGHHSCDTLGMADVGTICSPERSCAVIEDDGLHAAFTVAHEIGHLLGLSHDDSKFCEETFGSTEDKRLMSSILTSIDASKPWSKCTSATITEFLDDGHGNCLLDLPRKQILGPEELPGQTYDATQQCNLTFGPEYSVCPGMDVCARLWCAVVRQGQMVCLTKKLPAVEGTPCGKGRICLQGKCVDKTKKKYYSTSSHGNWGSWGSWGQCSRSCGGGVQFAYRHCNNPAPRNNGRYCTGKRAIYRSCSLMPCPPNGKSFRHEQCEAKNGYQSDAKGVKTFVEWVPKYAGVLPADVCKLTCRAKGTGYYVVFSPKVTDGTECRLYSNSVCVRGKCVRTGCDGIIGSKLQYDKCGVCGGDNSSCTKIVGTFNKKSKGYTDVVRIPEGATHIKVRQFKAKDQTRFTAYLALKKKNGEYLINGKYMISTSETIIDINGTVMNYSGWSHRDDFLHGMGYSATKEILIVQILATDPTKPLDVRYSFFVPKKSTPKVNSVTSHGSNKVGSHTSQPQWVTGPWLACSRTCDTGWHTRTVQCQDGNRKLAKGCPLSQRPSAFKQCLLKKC

[2] = molecular target: Disintegrin and metalloproteinase domain-containing protein 17 (Homo sapiens) (UniProt P78536); experiment: Inhibition of TACE at 10 uM
Sequence of Disintegrin and metalloproteinase domain-containing protein 17 (Homo sapiens) (P78536 whole entry, the tested form may be a part): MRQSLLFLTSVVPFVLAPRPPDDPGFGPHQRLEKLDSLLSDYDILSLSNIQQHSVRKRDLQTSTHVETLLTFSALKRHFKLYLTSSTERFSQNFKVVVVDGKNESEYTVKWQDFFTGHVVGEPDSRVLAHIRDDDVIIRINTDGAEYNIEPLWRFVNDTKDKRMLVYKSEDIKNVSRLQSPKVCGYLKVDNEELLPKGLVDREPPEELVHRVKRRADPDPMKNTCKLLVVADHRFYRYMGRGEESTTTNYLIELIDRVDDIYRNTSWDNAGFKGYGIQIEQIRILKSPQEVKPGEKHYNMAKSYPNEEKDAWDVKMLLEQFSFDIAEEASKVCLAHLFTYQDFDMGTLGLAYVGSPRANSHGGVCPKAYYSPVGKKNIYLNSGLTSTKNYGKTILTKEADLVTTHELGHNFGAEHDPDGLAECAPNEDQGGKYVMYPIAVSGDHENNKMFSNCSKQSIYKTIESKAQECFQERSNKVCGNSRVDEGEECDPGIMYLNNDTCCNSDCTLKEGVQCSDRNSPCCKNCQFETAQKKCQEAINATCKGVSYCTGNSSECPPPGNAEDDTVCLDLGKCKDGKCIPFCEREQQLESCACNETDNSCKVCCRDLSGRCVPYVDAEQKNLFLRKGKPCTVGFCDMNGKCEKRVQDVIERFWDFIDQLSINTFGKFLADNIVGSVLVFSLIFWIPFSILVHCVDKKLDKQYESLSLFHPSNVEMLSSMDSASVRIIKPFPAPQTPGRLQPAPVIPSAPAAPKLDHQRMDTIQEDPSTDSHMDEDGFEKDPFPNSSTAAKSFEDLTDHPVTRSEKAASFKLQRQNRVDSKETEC

[3] = molecular target: T2, Interstitial collagenase (Homo sapiens) (UniProt P03956); experiment: Inhibition of MMP1 at 10 uM
T2 sequence (whole entry): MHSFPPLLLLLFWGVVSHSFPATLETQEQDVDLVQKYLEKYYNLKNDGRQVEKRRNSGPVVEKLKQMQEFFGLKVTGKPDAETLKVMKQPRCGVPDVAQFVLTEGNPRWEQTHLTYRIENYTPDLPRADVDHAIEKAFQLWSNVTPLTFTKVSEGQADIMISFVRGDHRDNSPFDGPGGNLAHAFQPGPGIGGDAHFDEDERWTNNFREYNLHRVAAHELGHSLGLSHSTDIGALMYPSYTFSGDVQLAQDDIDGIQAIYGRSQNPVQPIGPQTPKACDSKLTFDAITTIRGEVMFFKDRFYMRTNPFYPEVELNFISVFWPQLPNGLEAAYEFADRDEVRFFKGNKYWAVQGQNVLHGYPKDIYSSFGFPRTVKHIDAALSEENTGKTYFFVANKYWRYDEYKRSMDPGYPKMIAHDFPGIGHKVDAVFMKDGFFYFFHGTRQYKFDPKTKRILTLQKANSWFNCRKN

[4] = molecular target: T3, A disintegrin and metalloproteinase with thrombospondin motifs 5 (Homo sapiens) (UniProt Q9UNA0); experiment: Inhibition of recombinant aggrecanase 2 at 10 uM
T3 sequence (whole entry): T1 sequence (Q9UNA0 whole entry)

SMILES | pIC50 [1] | Activity [2] | Activity [3] | inhibition [4] [%]
O=C(O)[C@@]1(N(CCn2cnc3cncnc32)S(=O)(=O)c2ccc(-c3ccc(Cl)cc3)cc2)C[C@H]1c1ccccc1 | 6.77 | inactive | inactive | –
C[C@@](Cc1ccccc1)(C(=O)O)N(CCN1CCCC1=O)S(=O)(=O)c1ccc(-c2ccc(Cl)cc2)cc1 | – | – | – | 0.1
O=C(O)[C@@H](Cc1ccccc1)N(CCN1CCCC1=O)S(=O)(=O)c1ccc(-c2ccc(Cl)cc2)cc1 | 5.80 | – | – | –
CN([C@@H](Cc1ccccc1)C(=O)O)S(=O)(=O)c1ccc(-c2ccc(Cl)cc2)cc1 | – | – | – | -0.12
COC(=O)c1cn(CCN([C@]2(C(=O)O)C[C@H]2c2ccccc2)S(=O)(=O)c2ccc(-c3ccc(Cl)cc3)cc2)cn1 | 7.14 | inactive | inactive | –
O=C(O)[C@@H](Cc1ccccc1)NS(=O)(=O)c1ccc(-c2ccc(Cl)cc2)cc1 | 5.49 | – | – | –
COC(=O)c1cncn1CCN([C@]1(C(=O)O)C[C@H]1c1ccccc1)S(=O)(=O)c1ccc(-c2ccc(Cl)cc2)cc1 | 6.64 | inactive | inactive | –
O=C(O)[C@@H](Cc1ccccc1)N(CC1CCCCC1)S(=O)(=O)c1ccc(-c2ccc(Cl)cc2)cc1 | – | – | – | 22
CN([C@H](Cc1ccccc1)C(=O)O)S(=O)(=O)c1ccc(-c2ccc(Cl)cc2)cc1 | 5.10 | – | – | –
O=C(O)[C@@]1(N(CCc2cccnc2)S(=O)(=O)c2ccc(-c3ccc(Cl)cc3)cc2)C[C@H]1c1ccccc1 | 6.54 | inactive | inactive | –
O=C1CCCN1CCN([C@]1(C(=O)O)C[C@H]1c1ccccc1)S(=O)(=O)N1CC=C(c2ccc(Cl)cc2)CC1 | 6.06 | – | – | –
O=C(O)[C@@H](Cc1ccccc1)N(CCc1ccccc1)S(=O)(=O)c1ccc(-c2ccc(Cl)cc2)cc1 | 5.14 | – | – | –
O=C(O)[C@@H](Cc1ccccc1)N(Cc1ccccc1)S(=O)(=O)c1ccc(-c2ccc(Cl)cc2)cc1 | – | – | – | 30
O=C(O)[C@@]1(N(CCn2cnc3ncncc32)S(=O)(=O)c2ccc(-c3ccc(Cl)cc3)cc2)C[C@H]1c1ccccc1 | 7.15 | inactive | inactive | –
O=C(O)[C@@]1(N(CCc2ccccn2)S(=O)(=O)c2ccc(-c3ccc(Cl)cc3)cc2)C[C@H]1c1ccccc1 | 6.09 | inactive | inactive | –
O=C1CCCN1CCN([C@]1(C(=O)O)C[C@H]1c1ccccc1)S(=O)(=O)c1ccc(C#CCO)cc1 | – | – | – | -1.5
O=C(O)[C@@]1(N(CCc2ccncc2)S(=O)(=O)c2ccc(-c3ccc(Cl)cc3)cc2)C[C@H]1c1ccccc1 | 6.12 | inactive | inactive | –
COCC#Cc1ccc(S(=O)(=O)N(CCN2CCCC2=O)[C@]2(C(=O)O)C[C@H]2c2ccccc2)cc1 | – | – | – | 2.9
O=C(O)[C@@H](Cc1ccccc1)N(CC1CC1)S(=O)(=O)c1ccc(-c2ccc(Cl)cc2)cc1 | – | – | – | 46

Other lines, results leading:

pIC50 [1] | Activity [2] | Activity [3] | inhibition [4] [%] | SMILES
5.96 | – | – | – | O=C1CCCN1CCN([C@]1(C(=O)O)C[C@H]1c1ccccc1)S(=O)(=O)c1ccc(-c2ccc(Cl)cc2)nc1
6.49 | inactive | inactive | – | O=C(O)[C@@]1(N(CCn2ccnc2)S(=O)(=O)c2ccc(-c3ccc(Cl)cc3)cc2)C[C@H]1c1ccccc1
6.66 | inactive | inactive | – | O=C1OCCN1CCN([C@]1(C(=O)O)C[C@H]1c1ccccc1)S(=O)(=O)c1ccc(-c2ccc(Cl)cc2)cc1
7.11 | inactive | inactive | – | COc1cccn(CCN([C@]2(C(=O)O)C[C@H]2c2ccccc2)S(=O)(=O)c2ccc(-c3ccc(Cl)cc3)cc2)c1=O
6.74 | inactive | inactive | – | O=C(O)[C@@]1(N(CCn2cncn2)S(=O)(=O)c2ccc(-c3ccc(Cl)cc3)cc2)C[C@H]1c1ccccc1
– | – | – | 18 | O=C1CCCN1CCN([C@]1(C(=O)O)C[C@H]1c1ccccc1)S(=O)(=O)c1ccc(-c2ccncc2)cc1
6.70 | inactive | inactive | – | O=C1CCCN1CCN([C@]1(C(=O)O)C[C@H]1c1ccccc1)S(=O)(=O)c1ccc(-c2ccc(Cl)cc2)cc1
6.68 | inactive | inactive | – | O=C1CCCCN1CCN([C@]1(C(=O)O)C[C@H]1c1ccccc1)S(=O)(=O)c1ccc(-c2ccc(Cl)cc2)cc1
6.74 | inactive | inactive | – | O=C1OCCCN1CCN([C@]1(C(=O)O)C[C@H]1c1ccccc1)S(=O)(=O)c1ccc(-c2ccc(Cl)cc2)cc1
6.57 | inactive | inactive | – | O=C(O)[C@@]1(N(CCn2cnnn2)S(=O)(=O)c2ccc(-c3ccc(Cl)cc3)cc2)C[C@H]1c1ccccc1
6.59 | inactive | inactive | – | O=C(O)[C@@]1(N(CCn2nccn2)S(=O)(=O)c2ccc(-c3ccc(Cl)cc3)cc2)C[C@H]1c1ccccc1
6.57 | inactive | inactive | – | O=C(O)[C@@]1(N(CCn2ccnn2)S(=O)(=O)c2ccc(-c3ccc(Cl)cc3)cc2)C[C@H]1c1ccccc1
5.35 | – | – | – | CC(=O)Nc1ccc(-c2ccc(S(=O)(=O)N(CCN3CCCC3=O)[C@]3(C(=O)O)C[C@H]3c3ccccc3)cc2)cc1
6.51 | inactive | inactive | – | O=C1CCC(=O)N1CCN([C@]1(C(=O)O)C[C@H]1c1ccccc1)S(=O)(=O)c1ccc(-c2ccc(Cl)cc2)cc1
6.72 | inactive | inactive | – | O=C(O)[C@@]1(N(CCn2cnnc2)S(=O)(=O)c2ccc(-c3ccc(Cl)cc3)cc2)C[C@H]1c1ccccc1
5.18 | – | – | – | CN(C)c1ccc(-c2ccc(S(=O)(=O)N(CCN3CCCC3=O)[C@]3(C(=O)O)C[C@H]3c3ccccc3)cc2)cc1
